Results on 1 compound are retold here after patent EP0383170A2, “Methotrexate linked to polymers, process for their preparation, and use” (HOECHST AKTIENGESELLSCHAFT, priority 1989, dated 1990).

For one data set, the system named is A 549. As to the kind of experiment: Proliferation test (formazan dye reduction), 72 h incubation. Format: cell-based. As to conditions: A 549 cells. The source says:
(§1) Proliferationstest (Methotrexat-Reduktion)
(§2) Kontrollexperimente erhalten anstelle der Testsubstanz lediglich Wachstumsmedium. […] Flow bei einer Wellenlänge von 492 nm gemessen.
(§3) Für wiederholte Untersuchungen beträgt der Variationskoeffizient weniger als 15 %. Tabelle 1

In another data set the test system is HT 29. The data set is described as above. As to conditions: HT 29 cells. It counts as cell-based.
Excerpt: as §1, §2, §3

Another data set relates to L1210. The data set is described as above. It counts as cell-based. Particulars: L1210 cells.
Excerpt: as §1, §2, §3

The test system of another data set is L1210 Leukämie. Description: In vivo efficacy on L1210 leukaemia in mice (median survival time, T/C). As to conditions: for optimale Dosis: dose giving the greatest antitumoral effect. How it is done:
Aszites Flüssigkeit wird 7 Tage nach der Tumor-Implantation unter sterilen Bedingungen aus DBA2 Mäusen entnommen (weiblich, 18 bis 20 g). Die Aszites Flüssigkeit wird dreimal mit PBS (phosphate buffered saline) gewaschen, gezählt und anschließend in PBS verdünnt bis zu einer Endkonzentration von 10⁶ Zellen pro 0,2 ml.
10⁶ Zellen in 0,2 ml PBS werden DBA2 Mäusen (weiblich, 18 bis 20 g) intraperitoneal appliziert. Dieser Transfer wird einmal wöchentlich wiederholt.
10⁵ Zellen der Aszites Flüssigkeit in 0,2 ml PBS werden BDF1 Mäusen (weiblich, 18 bis 20 g) intraperitoneal appliziert. 6 Tiere werden für jede Substanzkonzentration sowie für die Kontrolle eingesetzt.
a) Die Tiere werden an Tag 1 und Tag 5 nach der Tumorzellenimplantation gewogen. Gewichtsverlust von mehr als 20 % an Tag 5 wird als Indikator eines toxischen Substanzeffektes verwendet.
b) Am Ende des Experiments (Tod aller Tiere oder Erreichen von Tag 60) wird die mediane Überlebenszeit der Behandlungsgruppen bestimmt, sofern diese 65 % überlebende Tiere am Tag 5 enthielten. Die Ermittlung der medianen Überlebenszeit erfolgt entsprechend der Formel: [formula]
In dieser Formel bedeutet X den frühesten Tag, an dem die Zahl der überlebenden Tiere N/2 und Y den frühesten Tag, an dem die Zahl der überlebenden Tiere (N/2)-1 ist. In dem Fall, daß N eine ungerade Zahl ist, entspricht die mediane Überlebenszeit dem Zeitpunkt X.
Die mediane Überlebenszeit wird ausschließlich für im Verlauf des Experiments sterbende Tiere bestimmt. Geheilte Tiere (long time survivors, LTS) werden von der Bestimmung der medianen Überlebenszeit ausgeschlossen und getrennt aufgeführt.
Aus der medianen Überlebenszeit der behandelten Gruppen (MSTTumor) und Kontrollgruppen (MSTControl) wird der antitumorale Effekt-Tumor/control (T/C) entsprechend der Formel [formula] bestimmt. T/C Werte von mehr als 125 % werden als Indikator einer signifikanten antitumoralen Wirksamkeit der Testverbindung angesehen. Die Dosis, die jeweils den größten antitumoralen Effekt bewirkt (optimale Dosierung) ist in Tab. 2 aufgeführt. Noch lebende Tiere an Tag 60 werden als geheilt betrachtet (LTS). Ergebnisse: s. Tabelle 2

The conditions of data set [1]: free methotrexate; the 330 mg/kg dose is said to lie above it; cited from earlier work.
[2] abbreviates: L1210, 3xip/ip/Q3D, at optimal dose.

In the case of `CN(Cc1cnc2nc(N)nc(N)c2n1)c1ccc(C(=O)N[C@@H](CCC(=O)O)C(=O)O)cc1` [Methotrexat, N-[4-[[(2,4-diamino-6-pteridinyl)-methyl]methylamino]benzoyl]-glutaminsäure], the IC₅₀ is given as 0,01 µg/ml in the data set with A 549, 0,008 µg/ml with HT 29 and 0,01 µg/ml in the data set on L1210. Also, the “Wirkung (T/C %)” value amounted to 123% with L1210 Leukämie (L1210, 1xip/ip, at optimal dose) and 378% with L1210 Leukämie (setting [2]). Besides, the “optimale Dosis” value is 100 mg polymerfixiertes Produkt/kg Körpergewicht with L1210 Leukämie (L1210, 1xip/ip) and 80 mg polymerfixiertes Produkt/kg Körpergewicht with L1210 Leukämie (L1210, 3xip/ip/Q3D). In the data set with L1210 Leukämie (setting [2]), this compound showed a toxisch of 1. In addition, in the data set with L1210 Leukämie (L1210, 3xip/ip/Q3D, at optimal dose, animals alive at day 60 (LTS)), the Heilungen was 5/6. In addition, the “Lebensverlängerungen gegenüber unbehandelten Kontrollen” value in the data set on L1210 Leukämie (mice with L1210 leukaemia, single i.p. application of 60 mg/kg body weight methotrexate equivalent) is recorded as “nicht wirksam”. The LD₅₀ in data set [1] is under 330 mg/kg.
